Data on 2 molecules can be found in PubChem BioAssay (NCI).

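These data come from cells grown in 96-well plates and exposed to compound for 48 hours at five concentrations. Abbreviation: GI50, concentration required for 50% inhibition of growth. TGI is the concentration that stops growth completely.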

Some test systems named below: UO-31 renal; HOP-92 NSCLC; CAKI-1 renal; DU-145 prostate; OVCAR-5 ovarian; HL-60(TB) leukemia; CCRF-CEM leukemia; MDA-MB-435.
What all share (test): growth of human tumour cells (NCI), 48 h

Consider `OC(c1cc2cc(Br)ccc2c2cc(Br)ccc12)C1CCCCN1` (stereo not given), for which the GI50 in the assay on UO-31 renal is 1.46 µM; with HOP-92 NSCLC, 1.21 µM; in the assay on CAKI-1 renal, 1.76 µM; in the assay with DU-145 prostate it was 1.95 µM; in the assay on OVCAR-5 ovarian, 1.58 µM; in the assay on HL-60(TB) leukemia, 1.75 µM. The TGI is 3.18 µM in the assay with UO-31 renal; 2.67 µM with HOP-92 NSCLC; 3.54 µM in the assay on CAKI-1 renal; 3.43 µM with DU-145 prostate; 3.13 µM in the assay with OVCAR-5 ovarian; 3.43 µM in the assay with HL-60(TB) leukemia.

In the case of `COc1ccc2nc3cc(Cl)ccc3c(NCCCNCc3cc(OC)c(OC)c(OC)c3)c2c1`, the TGI in the assay with CCRF-CEM leukemia is over 100 µM; in the assay with MDA-MB-435, 3.24 µM; in the assay on OVCAR-5 ovarian it was 3.11 µM.
